According to PMC8949806, “Automated Synthesis of ^68Ga-Labeled DOTA-MGS8 and Preclinical Characterization of Cholecystokinin-2 Receptor Targeting” (Molecules, 2022):
Where a SMILES comes first, the peptide text is derived from it. [ ]: non-standard residue; d: D form. The star is where a group is joined. DOTA = O=C(O)CN1CCN(CC(=O)O)CCN(CC(=O)*)CCN(CC(=O)O)CC1; 1Nal = N[C@@H](Cc1cccc2ccccc12)C(=O)O; NMeNle = CCCC[C@H](NC)C(=O)O

Test: in vivo
Design: species or system BALB/c nude mice
Details: female, BALB/c nude, mouse, iv, total radioactivity
Method: Biodistribution studies were performed in accordance with the ethical standards of the institution and approved by the Austrian Ministry of Science (BMWFW-66.011/0072-V/3b/2019). In vivo studies were carried out in 6–8-week-old female BALB/c nude mice xenografted with A431-CCK2R/A431-mock cells (Charles River, Sulzfeld, Germany; n = 4). For the induction of the tumor xenografts, 150 μL DMEM containing 2 × 10^6 A431-CCK2R and A431-mock cells were injected subcutaneously into the right and left flanks of each mouse. Tumors were allowed to grow for 10–14 days. [^68Ga]Ga-DOTA-MGS8 used in animal studies was prepared as described in the Supplementary Materials (page 2, Figures S1 and S2). To remove any hydrophilic impurities after radiolabeling, the solution was passed through a Sep-Pak® Light C18 cartridge (Waters, Milford, MA) preconditioned with ethanol and physiological saline. [^68Ga]Ga-DOTA-MGS8 was then eluted with 600 µL of a mixture of ethanol and PBS (2/1; v/v) followed by 1100 µL PBS. To this solution, 20 µL of 0.01 M bicarbonate was added for pH adjustment. The final injection solution was diluted with PBS containing 0.5% bovine serum albumin (BSA) to reach an injected radioactivity of ~200 kBq and a total injected peptide amount of ~30 pmol. [^68Ga]Ga-DOTA-MGS8 was administered in 150 µL via a lateral tail vein. The mice were euthanized 1 h p.i. by cervical spine dislocation. […] All organs, including blood and the remaining body, were weighed and their radioactivity was measured using the gamma-counter together with a standard. For the determination of radioactivity in the different tissues, a standard of 10 µL of the injection solution, as well as a 50 µL aliquot of a 1:10 and 1:50 dilution of the injection solution, were measured along with samples taken from the animals. […] The volume injected to each mouse was determined by calculating the difference in weight of the syringe before and after injection. Results were expressed as the percentage of injected activity per gram tissue (% IA/g).

- tissue to tissue ratio at 1 h (Tumor-to-blood ratio): 13.4 ± 1.77
- tissue to tissue ratio at 1 h (Tumor-to-kidney ratio): 4.41 ± 0.4
- tissue to tissue ratio at 1 h (Tumor-to-stomach ratio): 11 ± 2.05
Structure (SMILES): CCCC[C@@H](C(=O)N[C@@H](CC(=O)O)C(=O)N[C@@H](Cc1cccc2ccccc12)C(N)=O)N(C)C(=O)[C@H](Cc1c[nH]c2ccccc12)NC(=O)CNC(=O)[C@H](Cc1ccc(O)cc1)NC(=O)[C@@H]1CCCN1C(=O)[C@@H](CCC(=O)O)NC(=O)CN1CCN(CC(=O)O)CCN(CC(=O)O)CCN(CC(=O)O)CC1 [[^68Ga]Ga-DOTA-MGS8, metal not drawn] ({DOTA}-[dE]PYGW[NMeNle]D[1Nal]-NH2)
